Assay results published in the NIST ThermoML archive (doi:10.1016/j.jct.2014.02.021).
“And” between values parts separate entries of the source, which are not always exact repeats. Equal entries are not always repeated. ± gives the expanded uncertainty stated by the source.

Tests used:
[1] = 298.15 K; 101 kPa; Liquid; Vibrating tube method
[2] = xn = mol fraction of the nth substance listed; details: 298.15 K, 101 kPa, Liquid, Vibrating tube method

Question: With `CC1COC(=O)O1` (configuration not stated) [4-methyl-1,3-dioxolan-2-one] as the compound, how does the mass density [1] read?
Answer: 1199.49 ± 1 kg/m3

Question: For `CC1COC(=O)O1` (configuration not stated) [4-methyl-1,3-dioxolan-2-one] + CO, which mass density ([2]; x1 = 0.0484) is on record?
Answer: 828.25 ± 1 kg/m3

Question: And the mass density ([2]; x1 = 0.0497)?
Answer: 828.25 ± 1 kg/m3

Question: What about the mass density ([2]; x1 = 0.051) of the same compound?
Answer: 829.62 ± 1 kg/m3

Question: And the mass density ([2]; x1 = 0.0987)?
Answer: 871.34 ± 1.1 kg/m3

Question: What about the mass density ([2]; x1 = 0.0991) of the same compound?
Answer: 870.05 ± 1 kg/m3

Question: And the mass density ([2]; x1 = 0.0999)?
Answer: 869.111 ± 1.1 kg/m3

Question: And the mass density ([2]; x1 = 0.1972)?
Answer: 932.83 ± 1.1 kg/m3

Question: And the mass density ([2]; x1 = 0.1991)?
Answer: 936.46 ± 1.1 kg/m3

Question: And the mass density ([2]; x1 = 0.2001)?
Answer: 939.29 ± 1.1 kg/m3

Question: What about the mass density ([2]; x1 = 0.3942) of the same compound?
Answer: 1035.57 ± 1.1 kg/m3

Question: What about the mass density ([2]; x1 = 0.3998) of the same compound?
Answer: 1021.45 ± 20 kg/m3

Question: And the mass density ([2]; x1 = 0.4001)?
Answer: 1037.34 ± 1 kg/m3

Question: What about the mass density ([2]; x1 = 0.4998) of the same compound?
Answer: 1069.62 ± 1 kg/m3

Question: And the mass density ([2]; x1 = 0.5022)?
Answer: 1072.85 ± 1 kg/m3

Question: And the mass density ([2]; x1 = 0.505)?
Answer: 1072.84 ± 1 kg/m3

Question: And the mass density ([2]; x1 = 0.598)?
Answer: 1103.43 ± 1 kg/m3

Question: And the mass density ([2]; x1 = 0.6017)?
Answer: 1106.39 ± 1 kg/m3

Question: And the mass density ([2]; x1 = 0.6049)?
Answer: 1103.9 ± 1 kg/m3

Question: And the mass density ([2]; x1 = 0.7939)?
Answer: 1159.25 ± 1 kg/m3

Question: And the mass density ([2]; x1 = 0.7979)?
Answer: 1159.25 ± 1 kg/m3

Question: What about the mass density ([2]; x1 = 0.8009) of the same compound?
Answer: 1158.72 ± 1 kg/m3

Question: And the mass density ([2]; x1 = 0.9)?
Answer: 1179.23 ± 1 kg/m3

Question: And the mass density ([2]; x1 = 0.9011)?
Answer: 1179.68 ± 1 kg/m3

Question: And the mass density ([2]; x1 = 0.9031)?
Answer: 1179.23 ± 1 kg/m3

Question: What about the mass density ([2]; x1 = 1) of the same compound?
Answer: 1199.49 ± 1 kg/m3

Question: For `CC#N` [acetonitrile], which mass density [1] is on record?
Answer: 776.615 ± 1 kg/m3

Question: With `CC#N` [acetonitrile] + CO as the compound, how does the mass density ([2]; x1 = 0.0992) read?
Answer: 787.14 ± 1 kg/m3

Question: What about the mass density ([2]; x1 = 0.1002) of the same compound?
Answer: 787.104 ± 1 kg/m3

Question: And the mass density ([2]; x1 = 0.1075)?
Answer: 787.149 ± 1 kg/m3

Question: And the mass density ([2]; x1 = 0.197)?
Answer: 786.692 ± 1 kg/m3

Question: What about the mass density ([2]; x1 = 0.1984) of the same compound?
Answer: 786.63 ± 1 kg/m3

Question: What about the mass density ([2]; x1 = 0.2008) of the same compound?
Answer: 786.647 ± 1 kg/m3

Question: What about the mass density ([2]; x1 = 0.4002) of the same compound?
Answer: 784.701 ± 1 kg/m3

Question: And the mass density ([2]; x1 = 0.4004)?
Answer: 784.66 ± 1 kg/m3

Question: And the mass density ([2]; x1 = 0.4013)?
Answer: 784.644 ± 1 kg/m3

Question: What about the mass density ([2]; x1 = 0.465) of the same compound?
Answer: 784.22 ± 1 kg/m3

Question: What about the mass density ([2]; x1 = 0.4653) of the same compound?
Answer: 784.25 ± 1 kg/m3

Question: And the mass density ([2]; x1 = 0.5041)?
Answer: 783.427 ± 1 kg/m3

Question: What about the mass density ([2]; x1 = 0.5042) of the same compound?
Answer: 783.347 ± 1 kg/m3

Question: What about the mass density ([2]; x1 = 0.5047) of the same compound?
Answer: 783.356 ± 1 kg/m3

Question: What about the mass density ([2]; x1 = 0.601) of the same compound?
Answer: 782.103 ± 1 kg/m3 and 782.009 ± 1 kg/m3

Question: What about the mass density ([2]; x1 = 0.6056) of the same compound?
Answer: 781.935 ± 1 kg/m3

Question: What about the mass density ([2]; x1 = 0.7992) of the same compound?
Answer: 779.248 ± 1 kg/m3

Question: What about the mass density ([2]; x1 = 0.8012) of the same compound?
Answer: 779.292 ± 1 kg/m3

Question: And the mass density ([2]; x1 = 0.8067)?
Answer: 779.242 ± 1 kg/m3

Question: What about the mass density ([2]; x1 = 0.9007) of the same compound?
Answer: 777.825 ± 1 kg/m3

Question: And the mass density ([2]; x1 = 0.9044)?
Answer: 777.935 ± 1 kg/m3

Question: What about the mass density ([2]; x1 = 0.9049) of the same compound?
Answer: 777.896 ± 1 kg/m3

Question: What about the mass density ([2]; x1 = 0.9358) of the same compound?
Answer: 777.391 ± 1 kg/m3

Question: What about the mass density ([2]; x1 = 0.9376) of the same compound?
Answer: 777.347 ± 1 kg/m3

Question: And the mass density ([2]; x1 = 0.9382)?
Answer: 777.385 ± 1 kg/m3

Question: What about the mass density ([2]; x1 = 1) of the same compound?
Answer: 776.615 ± 1 kg/m3

Question: Which mass density [1] does the source give for `CN(C)C=O` [dimethylformamide] here?
Answer: 943.974 ± 1 kg/m3

Question: For `CN(C)C=O` [dimethylformamide] + CO, which mass density ([2]; x1 = 0.0496) is on record?
Answer: 803.451 ± 1 kg/m3

Question: What about the mass density ([2]; x1 = 0.0502) of the same compound?
Answer: 803.39 ± 1 kg/m3

Question: And the mass density ([2]; x1 = 0.0511)?
Answer: 803.056 ± 1 kg/m3

Question: What about the mass density ([2]; x1 = 0.0991) of the same compound?
Answer: 818.484 ± 1 kg/m3

Question: And the mass density ([2]; x1 = 0.1021)?
Answer: 818.46 ± 1 kg/m3

Question: And the mass density ([2]; x1 = 0.1084)?
Answer: 818.189 ± 1 kg/m3

Question: What about the mass density ([2]; x1 = 0.1981) of the same compound?
Answer: 843.566 ± 1 kg/m3

Question: And the mass density ([2]; x1 = 0.1988)?
Answer: 843.761 ± 1 kg/m3

Question: What about the mass density ([2]; x1 = 0.2004) of the same compound?
Answer: 843 ± 1 kg/m3

Question: And the mass density ([2]; x1 = 0.4022)?
Answer: 882.138 ± 1 kg/m3 and 881.976 ± 1 kg/m3

Question: What about the mass density ([2]; x1 = 0.4054) of the same compound?
Answer: 881.38 ± 1 kg/m3

Question: What about the mass density ([2]; x1 = 0.4986) of the same compound?
Answer: 896.174 ± 1 kg/m3

Question: And the mass density ([2]; x1 = 0.5002)?
Answer: 894.978 ± 1 kg/m3

Question: And the mass density ([2]; x1 = 0.5013)?
Answer: 896.278 ± 1 kg/m3

Question: What about the mass density ([2]; x1 = 0.5982) of the same compound?
Answer: 909.277 ± 1 kg/m3

Question: And the mass density ([2]; x1 = 0.6008)?
Answer: 908.588 ± 1 kg/m3

Question: What about the mass density ([2]; x1 = 0.6031) of the same compound?
Answer: 909.254 ± 1 kg/m3

Question: What about the mass density ([2]; x1 = 0.7998) of the same compound?
Answer: 928.355 ± 1 kg/m3

Question: And the mass density ([2]; x1 = 0.8028)?
Answer: 928.308 ± 1 kg/m3

Question: What about the mass density ([2]; x1 = 0.8054) of the same compound?
Answer: 928.317 ± 1 kg/m3

Question: What about the mass density ([2]; x1 = 0.8997) of the same compound?
Answer: 936.786 ± 1 kg/m3

Question: What about the mass density ([2]; x1 = 0.9033) of the same compound?
Answer: 936.655 ± 1 kg/m3

Question: And the mass density ([2]; x1 = 0.9039)?
Answer: 936.718 ± 1 kg/m3

Question: And the mass density ([2]; x1 = 1)?
Answer: 943.974 ± 1 kg/m3

Question: Which mass density [1] does the source give for `CO` [methanol] here?
Answer: 786.58 ± 1 kg/m3

Question: With `CO` [methanol] + CC1COC(=O)O1 as the compound, how does the mass density ([2]; x2 = 0) read?
Answer: 786.58 ± 1 kg/m3

Question: With `CO` [methanol] + CC#N as the compound, how does the mass density ([2]; x2 = 0) read?
Answer: 786.58 ± 1 kg/m3

Question: For `CO` [methanol] + CN(C)C=O, which mass density ([2]; x2 = 0) is on record?
Answer: 786.58 ± 1 kg/m3
